Measured values published in US6486156B1, “Chemical compounds” (Astrazeneca AB, priority 1998, dated 2002).

Target: T1, Farnesyl protein transferase (FPT) (Homo sapiens, UniProt P49354+P49356)
T1 construct: partially purified from human placenta by ammonium sulphate fractionation; from tissue; host or cells: human placenta
Experiment: In-vitro assay (test (i)): inhibition of farnesylation of Ki-ras with radiolabelled farnesyl pyrophosphate
Type: biochemical
Settings: FPT partially purified from human placenta; substrate Kras (CVIM C-terminal sequence)
Description: The following stock solutions were used and the assays were conducted in 96 well plates: TRIS Buffer (500 mM TRIS, 5 mM MgCl2.6H2O, pH=8.0); Farnesyl pyrophosphate (6.4 mg/ml); Aprotinin (1.9 mg/ml); Ki-ras (0.5 mg/ml, stored at −80° C.); Acid ethanol (850 ml absolute ethanol+150 ml concentrated HCl).
Farnesyl protein transferase (FPT) was partially purified from human placenta by ammonium sulphate fractionation followed by a single Q-Sepharose™ (Pharmacia, Inc) anion exchange chromatography essentially as described by Ray and Lopez-Belmonte (Ray K P and Lopez-Belmonte J (1992) Biochemical Society Transactions 20 494-497). The substrate for FPT was Kras (CVIM C-terminal sequence). The cDNA for oncogenic val 12 variant of human c-Ki-ras-2 4B was obtained from the plasmid pSW11-1 (ATCC). This was then subcloned into the polylinker of a suitable expression vector e.g. pIC147. The Kras was obtained after expression in the E. coli strain, BL21. […]
Assays were performed in 96 well plates as follows: 10 μl of test compound solution was added to each well. […] Precipitated protein was then collected onto glass fibre filter mats (B) using a Tomtec™ cell harvester and tritiated label was measured in a Wallac™ 1204 Betaplate scintillation counter. […]

## CSCC[C@H](NC(=O)c1ccc(/C=C/Cn2ccnc2)cc1-c1ccc(Cl)cc1Cl)C(=O)O [Example 29, (2S)-2-{4-[(E)-3-(Imidazol-1-yl)prop-1-en-1-yl]-2-(2,4-dichlorophenyl)benzamido}-4-methylsulfanylbutyric Acid]
  IC50: ~0.4 nM
